# Reference: publication PMC11434645, “Mechanisms of NMDA Receptor Inhibition by Biguanide Compounds” (Pharmaceuticals, 2024)
# Where two headings read alike, the source gives them in different places.
# Legend:
# NMDA receptors [1] = tested on: NMDA receptors; set-up: method as in PMID 12009768; conditions: acute phenformin treatment, cited from earlier work
# [2] = tested on: native NMDA receptors of rat CA1 hippocampal pyramidal neurons; experiment: Whole-cell patch-clamp of NMDA-induced currents in isolated CA1 pyramidal neurons; assay type: cell-based; conditions: for inhibition of NMDA receptor steady-state currents (in words): 10 µM; for agonist dependence of action: NMDA 30 µM vs 1 mM; for agonist dependence of action / voltage dependence of inhibition (in words): cycloguanil 5 µM, proguanil 10 µM, phenformin 20 µM; for Kd: fit of voltage dependence (+30 to −120 mV) with Equation (2); for δ (fraction of membrane electric field crossed): fit with Equation (2), * = fixed value; for voltage dependence of inhibition (in words): holding potential +30 to −120 mV; for competitive or not competitive inhibition: inhibition compared at 30 µM and 1000 µM NMDA; for % of Inhibition (10 µM) −80 mV: steady-state current, 10 µM compound; for % of trapping in double-pulse protocol / tail currents on coapplication with agonist: cycloguanil 100 µM; for washout of mixture with Mg2+ compared with compound alone: 10 mM Mg2+; for Hill Coeff.: concentration–inhibition curve; for washout τ, compound alone (representative recording) / washout τ, compound + Mg (representative recording): Figure 5; for washout τ, compound + Mg (representative recording): with 10 mM Mg2+; for tail currents on coapplication with agonist: proguanil 100 µM, phenformin 300 µM; for washout time constant τ, compound alone: proguanil 30 µM, magnesium 10 mM
# Protocol: NMDA receptors of these neurons consist mainly of GluN1, GluN2A and/or GluN2B subunits. We initially checked whether 10 µM concentrations of biguanide compounds metformin, phenformin, moroxydine, cycloguanil and proguanil would inhibit these steady-state currents. […] Hill coefficients were 1.0 ± 0.1, 1.1 ± 0.2 and 1.1 ± 0.1 for cycloguanil, proguanil and phenformin, respectively.
# All experiments were conducted with approval by the Animal Care and Use Committee of the Sechenov Institute of Evolutionary Physiology and Biochemistry of the Russian Academy of Sciences (protocol 1-13/2023, 26 January 2023). Outbred male Wistar rats (13–18 days old, weighing 25–35 g) were sourced from the IEPHB facility. Maximum efforts were made to minimize the number of animals used and to reduce discomfort.
# The rats were decapitated after sevoflurane anaesthetization. The brains were rapidly removed and cooled to 2–4 °C. Transverse hippocampal slices were prepared using a vibratome (Campden Instruments, Loughborough, UK), and single neurons were freed from slices by vibrodissociation. All experiments were performed at room temperature.
# The whole-cell patch clamp technique was used to record membrane currents in response to applications of the agonists. Series resistance (<20 MΩ) was compensated by 70–80% and monitored during experiments. Currents were recorded using an EPC-8 amplifier (HEKA Electronics, Lambrecht, Germany), filtered at 5 kHz, sampled and stored on a personal computer. Drugs were applied using an RSC-200 (BioLogic, Seyssinet-Pariset, France) perfusion system under computer control. The extracellular solution contained (in mM) NaCl 143, KCl 5, CaCl2 2.5, D-glucose 18, and HEPES 10 (pH adjusted to 7.4 with […]). The pipette solution contained (in mM) CsF 100, CsCl 40, NaCl 5, CaCl2 0.5, EGTA 5, and HEPES 10 (pH adjusted to 7.2 with CsOH). Proguanil (HY-B0806), cycloguanil (HY-12784), phenformin hydrochloride (HY-16397A), metformin hydrochloride (HY-17471A), moroxydine hydrochloride (HY-B0420A) and ifenprodil tartrate (HY-12882A) were obtained from MedChemExpress (Monmouth Junction, NJ, USA). Other reagents were purchased from MedChemExpress (Monmouth Junction, NJ, USA), Sigma (St. Louis, MO, USA) or Tocris Bioscience (Bristol, UK).
# Experiments were performed on pyramidal neurons from the CA1 area of the hippocampus. Unless otherwise specified, NMDA receptors were activated with 100 µM NMDA and 10 µM glycine. The percentage of steady-state current blockage by various drug concentrations was measured at holding voltages of either −80 or −30 mV. Transient processes lasting more than 20 ms were modeled using single or double exponential functions. In the case of double exponential fitting, the weighted time constant was employed.
# The voltage dependence of the compounds’ action was analyzed using the classical Woodhull model with the voltage-independent component addition. According to the Woodhull model of an impermeable blocker, the voltage dependence of steady-state blockade is defined by Equation (1):(1) B=100/(1+Kb/C×exp〖Fzδ/RTV〗) where V is voltage; B is the level of the block (%); C is the concentration of the drug; z is the molecular charge; and R, F and T have their standard meanings. Kb is the affinity of a drug for the channel, and δ is the electrical depth of the binding site. The δ value reflects the fraction of membrane electric field that the charged blocking molecule crosses on its pathway between the external media and the binding site in the channel.
# Our experimental data were not well fitted by the abovementioned equation, presumably because of the presence of a voltage-independent component. Thus, we used an Equation (2), taking it into account, assuming that the binding to the deep and superficial site is independent:(2) B=100−100/(1+C/(Kvd×exp〖Fzδ/RTV〗)+C/Kvi+(C×C)/(Kvd×exp〖Fzδ/RTV〗×Kvi)) […]
# NMDA receptors [3] = conditions: −30 mV in the presence of physiological magnesium concentration; read-out: IC50 of memantine; cited from earlier work
# [4] = read-out: Kvd (affinity for the deep site in the channel pore)
# [5] = read-out: Kvi (affinity for the superficial, voltage-independent site)
# [6] = 100 µM NMDA + 10 µM glycine, −80 mV, no Mg2+
# [7] = −30 mV holding voltage, 1 mM Mg2+, read-out: IC50 at −30 mV in the presence of 1 mM Mg2+
# [8] = −30 mV holding voltage, no Mg2+, read-out: IC50 at −30 mV in the absence of Mg2+
# [9] = −80 mV holding voltage, no Mg2+, 100 µM NMDA + 10 µM glycine, read-out: IC50, µM −80 mV
# [10] = −80 mV, Mg 10 mM, Prog 30 µM, Phen 50 µM
# [11] = −80 mV, Cyclog 10 µM, Ifen 10 µM
SMILES,mechanism of NMDA receptor inhibition [2],inhibition of NMDA receptor steady-state currents (in words) ([2]; −80 mV),agonist dependence of action [2],"Kd [2, 4]","Kd [2, 5]",δ (fraction of membrane electric field crossed) [2],voltage dependence of inhibition (in words) [2],competitive or not competitive inhibition [2],"% of Inhibition (10 µM) −80 mV [2, 6]",effect of 1 mM Mg2+ on activity at −30 mV ([2]; −30 mV holding voltage),"IC50 [2, 7]","IC50 [2, 8]",overshoots on washout in the presence of agonists ([2]; −80 mV),"IC50 [2, 9]",% of trapping in double-pulse protocol ([2]; −80 mV holding voltage),washout of mixture with Mg2+ compared with compound alone ([2]; −80 mV),Hill Coeff. ([2]; −80 mV),"washout τ, compound alone (representative recording) [2, 10]","washout τ, compound + Mg (representative recording) ([2]; −80 mV)",tail currents on coapplication with agonist ([2]; −80 mV),also measured
"[H]/N=C(/N)N/C(=N/[H])NCCc1ccccc1 [Phenformin, phenformin]",allosteric inhibitors,significant inhibition,more active in conditions of higher agonist concentration,> 500 µM,22 ± 2 µM,0.7 *,mostly voltage-independently with a small voltage-dependent component,not competitive,44 ± 2 (n = 5) %,not affected,41 ± 6 µM,36 ± 5 µM,did not demonstrate overshoots,13 ± 1 µM,< 5%,significantly faster,1.1 ± 0.1,180 ms,50 ms,tail current absence,effect on NMDA-induced whole-cell current (NMDA receptors [1]; 1 µM): did not affect; effect on calcium responses to NMDA (NMDA receptors [1]): did not alter
"CC1(C)N=C(N)N=C(N)N1c1ccc(Cl)cc1 [Cycloguanil, cycloguanil]",voltage-dependent trapping channel blocker,significant inhibition,agonist-independent,55 ± 11 µM,> 500 µM,0.7 ± 0.1,clearly voltage-dependent,not competitive,76 ± 5 (n = 4) %,attenuated,34 ± 10 µM,20 ± 5 µM,did not demonstrate overshoots,3.4 ± 0.6 µM,68 ± 11%,significantly faster,1.0 ± 0.1,–,60 ms,tail current absence,"washout τ, compound alone (representative recording) [2, 11]: 3000 ms"
[Mg+2] [magnesium],–,–,–,–,–,–,–,–,–,–,–,–,–,–,–,–,–,30 ms,–,–,"washout time constant τ, compound alone ([2]; −80 mV, mean ± SD): 30 ± 16 ms"
CC(C(O)c1ccc(O)cc1)N1CCC(Cc2ccccc2)CC1 (stereo not drawn) [ifenprodil],–,–,–,–,–,–,–,–,–,–,–,–,–,–,–,does not affect,–,–,28000 ms,–,"washout τ, compound alone (representative recording) [2, 11]: 28000 ms"
CC12CC3CC(C)(C1)CC(N)(C3)C2 [memantine],–,–,–,–,–,–,–,–,–,–,–,–,–,–,–,–,–,–,–,–,IC50 (NMDA receptors [3]): 6.4 ± 0.5 µM
"CN(C)C(=N)N=C(N)N [Metformin, metformin]",–,practically ineffective,–,–,–,–,–,–,6 ± 5 (n = 4) %,–,–,–,–,–,–,–,–,–,–,–,–
"[H]/N=C(\N/C(=N/[H])Nc1ccc(Cl)cc1)NC(C)C [Proguanil, proguanil]",allosteric inhibitors,significant inhibition,more active in conditions of higher agonist concentration,> 500 µM,14 ± 1 µM,0.7 *,mostly voltage-independently with a small voltage-dependent component,not competitive,51 ± 6 (n = 5) %,not affected,17 ± 3 µM,13 ± 3 µM,did not demonstrate overshoots,9 ± 2.2 µM,< 5%,significantly faster,1.1 ± 0.2,550 ms,75 ms,tail current absence,"activity lower than that of memantine (fold) ([2]; −30 mV, 1 mM Mg2+, compared with memantine IC50 of ref 40): approximately three-fold; washout time constant τ, mixture with Mg2+ ([2]; −80 mV, mean ± SD, proguanil 30 µM + 10 mM Mg2+): 76 ± 32 ms; washout time constant τ, compound alone ([2]; −80 mV, mean ± SD): 470 ± 120 ms"
"N=C(N)/N=C(\N)N1CCOCC1 [Moroxydine, moroxydine]",–,practically ineffective,–,–,–,–,–,–,5 ± 4 (n = 4) %,–,–,–,–,–,–,–,–,–,–,–,–
